Assay results from US20230096978A1, “MOR RECEPTOR AGONIST COMPOUND, PREPARATION METHOD THEREFOR, AND USE THEREOF” (CHENGDU EASTON BIOPHARMACEUTICALS CO., LTD., priority 2020, published 2023).
“And” between values parts separate entries of the source, which are not always exact repeats. Equal values may be shown once. Read-outs that look alike come from different tables or passages of the source.

Key:
[1] = system: thermal radiation tail-flick pain threshold in rats; experiment: Rat thermal radiation tail-flick pain threshold test; format: in vivo, SD rats; conditions: 0.7 mg/kg tail vein injection, Mean ± SEM; for Maximum percentage of analgesia (MPE) 0.5 h: 0.5 h after administration, n = 10; for Maximum percentage of analgesia (MPE) 1 h: 1 h after administration; for Maximum percentage of analgesia (MPE) 2 h: 2 h after administration; for Maximum percentage of analgesia (MPE) 3 h: 3 h after administration
Description: 1. Test purpose: to measure the effect of each compound sample on the pain threshold of rats by using the rat thermal radiation tail flick method.
Administered via tail vein injection at an equal dose of 0.7 mg/kg;
The rats (SD rats, SPF grade, with body weight of 220-250g, purchased from Beijing Vital River Laboratory Animal Technology Co., Ltd.) were firstly fixed in a special plastic cylinder, so that their tails were exposed and drooped naturally. Test was performed after the animals were quiet. […] The measured time interval was the tail-flick response latency, which is 3 s to 5 s in normal rats, and those with greater than 5 s or less than 3 s were excluded. Then, measurement was made every 5 min, and the mean of three measurements was taken as the basic nociceptive threshold. If the animal stayed more than 10 s under analgesic effect, the irradiation was stopped and 10 s was used as the upper limit of the tail flick latency to avoid burning the skin by the too-long irradiation. After the rats were given a certain dose of the drug, the pain thresholds of the rats were measured at different times.
After the rats were given a certain dose of the drug, the pain threshold of the rats was measured at 0.5 h, 1 h, 2 h, and 3 h. The maximum percentage of analgesia (% MPE) after administration was calculated, of which the calculation formula was as follows: MPE(%)=(pain threshold after administration−pain threshold before administration)/(10s−pain threshold before administration))×100%

[2] = system: colonic motility (glass bead expulsion) in mice; experiment: Mouse colonic glass bead expulsion time test; format: in vivo; conditions: C57BL/6 mice, 1 mg/kg single tail vein injection, n = 10; for Mean Expulsion Time: beads inserted 20 min after administration, limit 120 min, Mean ± S.E.M.; for Expulsion Time Prolonging Rate (ETPR): relative to solvent control
Description: 1. Test purpose: to test the effect of the test compound on the expulsion time of colonic glass beads from mice, and to preliminarily investigate its inhibitory effect on colonic motility.
Administered via tail vein injection at an equal dose of 1 mg/kg;
After 6-7 days of adaptive feeding of C57BL/6 mice, the animals fasted with free access to water for 12-16 hours and then randomly divided into 10 groups, 10 mice per group. Each group employed a single administration via tail vein, and the administration volume was 10 mL/kg. The solvent control group was given a vehicle (normal saline) via tail vein. 20 min after the administration, glass beads preheated to 37° C. with a diameter of 2 mm were pushed into the rectum at a distance of 2 cm through the anus. Timing was immediately started and the animals were placed individually in the observation cage to observe the time for the glass beads to be expulsed (the observation time limit was 120 min). If the glass beads had not been expulsed by the end of the observation period, the animals were euthanized and the rectum was dissected to confirm that the glass beads were still in the intestinal tract.
Colonic Expulsion Rate (CER)=number of animals that successfully expulsed glass beads during the observation period/total number of animals in this group×100%;
Expulsion Time Prolonging Rate (ETPR)=(mean expulsion time of test sample group—mean expulsion time of solvent control group)/mean expulsion time of solvent control group×100%;
Percent Maximum Possible Effect (% Maximum Possible Effect, Percent MPE)=(mean expulsion time of test sample group—mean expulsion time of solvent control group)/(120-mean expulsion time of solvent control group)×100%; Calculation and related statistical processing were performed on the test data using Microsoft Office Excel 2007 and GraphPad Prism software. Unless otherwise specified, the data were shown as mean±standard error (Mean±S.E.M.), and the comparison between groups was performed by one-way ANOVA, and the Dunnett's method was used for pairwise comparison test.

MOR (Mu opioid Receptor) = target: T1, MOR (Mu opioid Receptor) (Homo sapiens, UniProt P35372); experiment: cAMP agonistic activity assay, MOR stably transfected cell line; format: cell-based; conditions: for EC50 against μ receptor relative to that of TRV130: ratio of EC50 to TRV130
T1 construct: expressed in transfected cells
Description: (§1) 1. Test purpose: to detect the agonistic activity of compound samples utilizing MOR (Mu opioid Receptor), KOR(Kappa opioid receptor), and DOR (Delta Opioid Receptor) stably transfected cell lines and using the established cAMP assay detection platform.
(§2) a. All samples were dissolved with DMSO to a storage concentration of 30 mM.
(§3) b. A sample dilution sequence was prepared on a 384-well LDV plate. The first concentration point is 6 mM, with a 3.162-fold serial dilution and a total of 11 concentration points.
(§4) c. The sample dilution sequence was transferred to an test plate (Corning-3824) using the Echo machine, corresponding to transfer of 50 nL per well.
(§5) d. 50 nL of HPE or ZPE was transferred to the corresponding location of the test plate using the Echo machine.
(§6) 2.2 Test operation of cAMP agonistic activity detection
(§7) a. Assay buffer and stimulation buffer (STB) required for the test were formulated.
(§8) b. 5 μL of STB was firstly added to each well of the test plate (with 50 nL of compound already in the well), and then 5 μL of cell suspension was added thereto.
(§9) c. The test plate was incubated in a constant temperature incubator at 37° C.
(§10) d. A standard concentration curve of cAMP was created. The first concentration point was 2848 nM, with a 4-fold serial dilution and a total of 16 detection concentrations, and each concentration point was in triplicate.
(§11) e. cAMP detection reagent (Cisbio #62AM4PEJ) was added to the sample test plate and cAMP standard concentration test plate. 5 μL of D2 reagent was added first, and then 5 μL of Cryptate reagent was added.
(§12) f. The test plates were read on the Envision after being left for 60 minutes at room temperature.

[3] = Pharmacokinetic test after single tail vein injection; format: in vivo; conditions: SD (Sprague-Dawley), rat, plasma, iv; SD rats, single tail vein injection 2 mg/kg, n = 3
Description: 1. Test purpose: to investigate the pharmacokinetic parameters of each compound in the Experimental Example after a single tail vein administration.
Administered via tail vein at an equal dose of 2 mg/kg;
Blood was collected from the jugular vein before administration and 5 min, 10 min, 15 min, 20 min, 30 min, 45 min, 1h, 2h, 4h, 6h, 8h, 24 h after administration. 200 μL of whole blood was taken at each time point and was placed in an anticoagulation tube containing EDTA-K2, and centrifuged at 2000g at a low temperature of 4° C. to separate the plasma. The plasma was transferred to a microcentrifuge tube, and stored in a −80° C. refrigerator for later use.
By establishing a reliable LC/MS/MS analysis method, the blood concentration of each sample was detected, and the pharmacokinetic parameters of each compound were calculated.

[4] = target: T2, DOR (Delta Opioid Receptor) (Homo sapiens, UniProt P41143); experiment: cAMP agonistic activity assay, DOR stably transfected cell line; format: cell-based
T2 construct: expressed in transfected cells
Description: as §1, §2, §3, §4, §5, §6, §7, §8, §9, §10, §11, §12

[5] = target: T3, KOR(Kappa opioid receptor) (Homo sapiens, UniProt P41145); experiment: cAMP agonistic activity assay, KOR stably transfected cell line; format: cell-based
T3 construct: expressed in transfected cells
Description: as §1, §2, §3, §4, §5, §6, §7, §8, §9, §10, §11, §12

[6] = agonistic effect, cAMP assay, μ opioid receptor, read-out: EC50 μ
[7] = agonistic effect, cAMP assay, δ opioid receptor, read-out: EC50 δ
[8] = agonistic effect, cAMP assay, κ opioid receptor, read-out: EC50 κ
[9] = n = 10, listed as positive compound, 0.7 mg/kg

T2 sequence (P41143 whole entry): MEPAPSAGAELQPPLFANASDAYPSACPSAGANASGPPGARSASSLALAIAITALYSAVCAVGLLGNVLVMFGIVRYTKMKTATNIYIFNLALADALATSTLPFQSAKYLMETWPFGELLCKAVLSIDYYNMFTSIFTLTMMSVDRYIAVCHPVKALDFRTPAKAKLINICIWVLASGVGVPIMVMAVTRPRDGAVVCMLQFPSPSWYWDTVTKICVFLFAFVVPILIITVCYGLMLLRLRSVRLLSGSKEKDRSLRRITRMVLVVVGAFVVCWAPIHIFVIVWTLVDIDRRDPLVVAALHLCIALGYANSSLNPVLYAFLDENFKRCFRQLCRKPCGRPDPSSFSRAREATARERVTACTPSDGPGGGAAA
T1 sequence (P35372 whole entry, species assumed): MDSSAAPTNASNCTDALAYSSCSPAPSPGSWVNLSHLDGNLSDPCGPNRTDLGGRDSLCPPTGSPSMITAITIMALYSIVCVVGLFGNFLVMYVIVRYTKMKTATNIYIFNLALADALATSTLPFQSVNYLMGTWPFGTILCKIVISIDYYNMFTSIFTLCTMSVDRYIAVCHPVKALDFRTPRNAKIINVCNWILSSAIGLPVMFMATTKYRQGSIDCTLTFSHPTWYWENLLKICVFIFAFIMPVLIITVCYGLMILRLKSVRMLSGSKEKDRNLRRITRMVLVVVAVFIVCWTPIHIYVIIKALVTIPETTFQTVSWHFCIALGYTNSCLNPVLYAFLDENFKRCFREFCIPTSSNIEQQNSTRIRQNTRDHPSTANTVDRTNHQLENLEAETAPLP
T3 sequence (P41145 whole entry): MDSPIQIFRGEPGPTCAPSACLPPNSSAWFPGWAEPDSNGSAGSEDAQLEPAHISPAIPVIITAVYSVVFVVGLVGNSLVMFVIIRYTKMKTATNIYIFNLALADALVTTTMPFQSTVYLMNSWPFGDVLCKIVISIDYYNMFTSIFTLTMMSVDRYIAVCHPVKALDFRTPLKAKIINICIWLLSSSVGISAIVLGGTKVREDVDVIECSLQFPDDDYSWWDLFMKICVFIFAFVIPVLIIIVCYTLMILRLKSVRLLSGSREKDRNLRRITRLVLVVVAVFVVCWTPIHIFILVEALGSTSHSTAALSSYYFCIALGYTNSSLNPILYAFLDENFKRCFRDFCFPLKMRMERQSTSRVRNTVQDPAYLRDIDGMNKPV

SMILES | Maximum percentage of analgesia (MPE) 0.5 h [1] [%] | Maximum percentage of analgesia (MPE) 1 h ([1]; n = 10, 0.7 mg/kg) | Maximum percentage of analgesia (MPE) 2 h ([1]; n = 10, 0.7 mg/kg) | Maximum percentage of analgesia (MPE) 3 h ([1]; n = 10, 0.7 mg/kg) | Mean Expulsion Time [2] | Percent Maximum Possible Effect (Percent MPE) [2] [%] | Expulsion Time Prolonging Rate (ETPR) [2] [%] | EC50 (MOR (Mu opioid Receptor); [6]) [µM] | EC50 against μ receptor relative to that of TRV130 (MOR (Mu opioid Receptor)) | AUC(0-t) [3] [ng·h/mL] | Cmax [3] [ng/mL] | Tmax [3] [min] | half-life [3] [min] | EC50 [4, 7] [µM] | EC50 [5, 8] [µM] | EC50 [4] [µM] | EC50 [5] [µM] | EC50 (MOR (Mu opioid Receptor)) [µM] | other results
Fc1ccc([C@]2(CCNCc3ccccc3-c3ccncc3)CCOC3(CCCC3)C2)cc1 [Example 4] | 100.00 | 85.79±9.25% and 85.79% | 83.78±11.31% and 83.78% | 60.92±2.45% and 60.92% | 19.13 ± 3.93^※※♦♦ min | 13.04 | 377.06 | 0.0045 | about 1/10 | 563 ± 31.8 | 552 ± 48.7 | 10.8 ± 1.8 | 194 ± 6.6 | 42.7 | 54.5 | – | – | – | –
COc1ccsc1CNCC[C@@]1(c2ccccn2)CCOC2(CCCC2)C1 [TRV130, oliceridine, reference compound] | 100.00 | 88.69% | 70.01% | 49.32% | 37.57 ± 4.31^※※ min | 28.93 | 836.91 | – | – | 319 ± 30.6 | 235 ± 22.7 | 8.4 ± 6 | 56.4 ± 1.8 | – | – | 3.14 | 5.77 | – | Maximum percentage of analgesia (MPE) 1 h [1, 9]: 88.69±1.52%; Maximum percentage of analgesia (MPE) 2 h [1, 9]: 70.01±8.01%; Maximum percentage of analgesia (MPE) 3 h [1, 9]: 49.32±7.12%
c1ccc([C@]2(CCNCc3coc4ccccc34)CCOC3(CCCC3)C2)nc1 [Example 2] | 100.00 | 82.81±9.77% and 82.81% | 79.23±10.51% and 79.23% | 55.50±6.85% and 55.50% | 25.85 ± 5.88^※※♦ min | 18.83 | 544.64 | – | the same order of magnitude | 379 ± 63.1 | 309 ± 43 | 9 ± 0.6 | 137 ± 7.8 | – | – | 22.2 | 39.8 | 0.0029 | EC50 against δ receptor relative to that of TRV130 ([4]; ratio of EC50 to TRV130): about 7 times; EC50 against κ receptor relative to that of TRV130 ([5]; ratio of EC50 to TRV130): about 7 times
c1ccc([C@]2(CCNCc3coc4ccc(O[C@@H]5CCOC5)cc34)CCOC3(CCCC3)C2)nc1 [Example 3] | 100.00 | 86.89±7.34% and 86.89% | 82.95±8.69% and 82.95% | 61.46±8.58% and 61.46% | 18.99 ± 6.55^※※♦♦ min | 12.91 | 373.57 | 0.00056 | about 1/10 | 532 ± 50.6 | 543 ± 72.8 | 9 ± 1.2 | 177 ± 20.4 | 32.5 | 56.8 | – | – | – | –
COc1ccc2occ(CNCC[C@@]3(c4ccccn4)CCOC4(CCCC4)C3)c2c1 [Example 1] | 100.00 | 89.95±7.06% and 89.95% | 86.51±10.06% and 86.51% | 65.91±5.76% and 65.91% | 17.40 ± 5.84^※※♦♦ min | 11.55 | 333.92 | – | about 1/10 | 585 ± 25.9 | 601 ± 32.5 | 6.6 ± 3 | 190.2 ± 1.2 | – | – | 65.3 | 51.4 | 0.00021 | –
